From ChEMBL document CHEMBL5543067, “Advances in nitric oxide regulators for the treatment of ischemic stroke” (Eur J Med Chem, 2023)
≈ marks a conversion by molar mass, not a printed value.

Experiments:
[1] = Inhibition of NOS (unknown origin); set-up: species or system Homo sapiens
[2] = Neuroprotective activity in rat hippocampal neuron cells assessed as NMDA-induced cGMP production; format: functional, cell-based; conditions: Hippocampal neurone
[3] = system: Platelet; assay: Inhibition of ADP-induced platelet aggregation (unknown origin); format: functional, cell-based
[4] = Water solubility at pH 7.4; format: physicochemical
[5] = biological target: Nitric oxide synthase 1 (Rattus norvegicus, UniProt P29476); assay: Inhibition of rat cerebellum nNOS; format: tissue-based
[6] = biological target: T1, Nitric oxide synthase 3 (Homo sapiens, UniProt P29474); assay: Inhibition of human Endothelial cells eNOS; format: cell-based, Endothelial cell
T1 sequence (P29474 whole entry): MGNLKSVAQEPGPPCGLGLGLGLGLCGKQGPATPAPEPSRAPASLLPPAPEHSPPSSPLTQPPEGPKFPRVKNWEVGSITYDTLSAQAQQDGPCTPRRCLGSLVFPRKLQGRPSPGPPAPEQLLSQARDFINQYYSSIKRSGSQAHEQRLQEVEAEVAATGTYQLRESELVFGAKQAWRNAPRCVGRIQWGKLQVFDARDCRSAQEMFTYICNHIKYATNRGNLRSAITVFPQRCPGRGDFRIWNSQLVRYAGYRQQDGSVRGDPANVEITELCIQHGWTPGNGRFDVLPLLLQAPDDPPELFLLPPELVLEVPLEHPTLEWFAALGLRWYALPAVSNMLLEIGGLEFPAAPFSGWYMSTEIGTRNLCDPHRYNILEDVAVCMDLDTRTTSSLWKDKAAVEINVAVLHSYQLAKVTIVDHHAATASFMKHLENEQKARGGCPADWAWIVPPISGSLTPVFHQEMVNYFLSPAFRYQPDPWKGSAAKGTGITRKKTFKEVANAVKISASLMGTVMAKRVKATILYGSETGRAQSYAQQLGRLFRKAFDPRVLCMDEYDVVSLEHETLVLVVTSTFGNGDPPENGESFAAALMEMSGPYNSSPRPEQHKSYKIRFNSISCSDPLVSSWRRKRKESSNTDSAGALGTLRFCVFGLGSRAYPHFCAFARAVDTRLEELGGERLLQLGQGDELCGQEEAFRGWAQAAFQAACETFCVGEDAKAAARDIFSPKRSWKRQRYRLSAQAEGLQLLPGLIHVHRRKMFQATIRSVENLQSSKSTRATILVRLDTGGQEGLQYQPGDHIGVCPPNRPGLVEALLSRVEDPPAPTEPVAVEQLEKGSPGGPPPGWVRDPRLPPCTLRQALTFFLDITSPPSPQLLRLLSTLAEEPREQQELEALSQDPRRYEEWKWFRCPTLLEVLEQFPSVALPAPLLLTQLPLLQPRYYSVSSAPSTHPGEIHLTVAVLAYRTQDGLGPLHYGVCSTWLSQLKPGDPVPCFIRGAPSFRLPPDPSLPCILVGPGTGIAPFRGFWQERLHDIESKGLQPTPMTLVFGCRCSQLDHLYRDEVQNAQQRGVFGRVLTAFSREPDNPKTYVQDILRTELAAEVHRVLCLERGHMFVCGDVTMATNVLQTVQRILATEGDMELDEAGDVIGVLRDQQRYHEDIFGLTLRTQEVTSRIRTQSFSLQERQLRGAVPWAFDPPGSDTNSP

[7] = biological target: T2, Nitric oxide synthase, inducible (Mus musculus, UniProt P29477); assay: Inhibition of mouse iNOS in RAW264.7 cells; format: cell-based
T2 sequence (P29477 whole entry): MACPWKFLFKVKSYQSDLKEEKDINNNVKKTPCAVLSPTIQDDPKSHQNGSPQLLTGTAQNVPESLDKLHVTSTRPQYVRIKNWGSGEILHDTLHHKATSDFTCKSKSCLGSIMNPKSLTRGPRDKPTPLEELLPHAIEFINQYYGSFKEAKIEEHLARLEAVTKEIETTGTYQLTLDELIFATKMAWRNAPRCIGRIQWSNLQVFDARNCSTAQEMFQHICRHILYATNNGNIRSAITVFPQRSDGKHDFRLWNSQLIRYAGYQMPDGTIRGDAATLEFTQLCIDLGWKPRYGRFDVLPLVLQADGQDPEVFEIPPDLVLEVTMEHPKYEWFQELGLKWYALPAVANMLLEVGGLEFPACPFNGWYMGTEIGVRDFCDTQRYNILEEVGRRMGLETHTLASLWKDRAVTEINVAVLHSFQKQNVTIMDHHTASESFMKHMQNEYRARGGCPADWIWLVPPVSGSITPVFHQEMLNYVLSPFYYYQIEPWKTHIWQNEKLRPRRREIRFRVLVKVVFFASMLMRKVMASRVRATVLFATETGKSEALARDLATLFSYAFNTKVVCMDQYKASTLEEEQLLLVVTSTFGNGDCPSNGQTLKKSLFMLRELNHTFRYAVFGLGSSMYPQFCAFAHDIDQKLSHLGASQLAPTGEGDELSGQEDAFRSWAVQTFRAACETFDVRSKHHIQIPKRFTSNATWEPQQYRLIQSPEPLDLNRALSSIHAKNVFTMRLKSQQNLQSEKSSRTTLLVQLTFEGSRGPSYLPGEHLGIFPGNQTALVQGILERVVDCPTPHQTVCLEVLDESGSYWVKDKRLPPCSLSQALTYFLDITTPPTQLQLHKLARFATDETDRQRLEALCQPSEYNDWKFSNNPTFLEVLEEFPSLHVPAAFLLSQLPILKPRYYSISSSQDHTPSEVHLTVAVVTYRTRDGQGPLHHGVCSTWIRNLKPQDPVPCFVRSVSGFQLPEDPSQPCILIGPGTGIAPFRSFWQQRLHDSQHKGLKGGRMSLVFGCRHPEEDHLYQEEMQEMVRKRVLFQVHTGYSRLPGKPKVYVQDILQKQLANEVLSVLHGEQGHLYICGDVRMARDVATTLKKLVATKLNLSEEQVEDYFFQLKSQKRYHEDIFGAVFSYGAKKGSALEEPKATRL

[8] = biological target: Nitric oxide synthase 1 (Mus musculus, UniProt Q9Z0J4); assay: Inhibition of mouse nNOS
[9] = biological target: Nitric oxide synthase, inducible (Rattus norvegicus, UniProt Q06518); assay: Inhibition of rat iNOS
[10] = biological target: T3, Nitric oxide synthase 3 (Bos taurus, UniProt P29473); assay: Inhibition of bovine eNOS
T3 sequence (P29473 whole entry): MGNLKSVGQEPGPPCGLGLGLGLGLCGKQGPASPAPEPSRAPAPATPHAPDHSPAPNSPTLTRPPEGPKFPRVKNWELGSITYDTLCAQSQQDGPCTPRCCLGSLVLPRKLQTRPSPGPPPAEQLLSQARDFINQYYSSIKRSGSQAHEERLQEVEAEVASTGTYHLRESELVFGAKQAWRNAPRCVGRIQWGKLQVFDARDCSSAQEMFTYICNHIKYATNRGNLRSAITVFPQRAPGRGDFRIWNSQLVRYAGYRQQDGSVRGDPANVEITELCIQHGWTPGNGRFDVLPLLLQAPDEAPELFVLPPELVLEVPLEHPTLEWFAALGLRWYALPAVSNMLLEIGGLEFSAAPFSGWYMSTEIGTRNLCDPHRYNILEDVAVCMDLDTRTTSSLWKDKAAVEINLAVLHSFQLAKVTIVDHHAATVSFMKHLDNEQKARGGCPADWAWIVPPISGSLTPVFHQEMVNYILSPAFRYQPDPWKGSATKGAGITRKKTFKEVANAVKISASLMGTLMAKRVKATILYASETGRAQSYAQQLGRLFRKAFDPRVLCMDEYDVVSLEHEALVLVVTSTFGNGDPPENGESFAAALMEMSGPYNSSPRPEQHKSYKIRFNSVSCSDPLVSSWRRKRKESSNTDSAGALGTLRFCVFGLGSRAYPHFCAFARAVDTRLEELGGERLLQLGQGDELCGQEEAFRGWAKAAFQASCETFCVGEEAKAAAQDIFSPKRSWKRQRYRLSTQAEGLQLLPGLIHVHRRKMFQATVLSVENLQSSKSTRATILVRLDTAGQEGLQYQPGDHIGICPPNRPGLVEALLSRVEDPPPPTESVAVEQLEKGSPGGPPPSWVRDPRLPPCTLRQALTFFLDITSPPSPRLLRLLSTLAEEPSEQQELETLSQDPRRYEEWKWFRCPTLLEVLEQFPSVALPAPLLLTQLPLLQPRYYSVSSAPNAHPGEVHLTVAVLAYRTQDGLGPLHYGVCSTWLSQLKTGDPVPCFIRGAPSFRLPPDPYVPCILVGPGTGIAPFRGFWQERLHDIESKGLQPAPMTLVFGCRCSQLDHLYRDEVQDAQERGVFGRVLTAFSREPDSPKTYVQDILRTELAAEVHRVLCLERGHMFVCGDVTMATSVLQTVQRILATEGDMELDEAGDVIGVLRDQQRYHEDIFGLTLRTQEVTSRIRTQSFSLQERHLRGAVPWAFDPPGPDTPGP

[11] = system: Platelet; assay: Inhibition of ADP-induced platelet aggregation in New Zealand White rabbit; format: functional, cell-based; conditions: Oryctolagus cuniculus
[12] = system: Platelet; assay: Inhibition of AA-induced platelet aggregation in New Zealand White rabbit; format: functional, cell-based; conditions: Oryctolagus cuniculus
[13] = biological target: T4, Nitric oxide synthase 1 (Homo sapiens, UniProt P29475); assay: Binding affinity to nNOS (unknown origin) assessed as inhibition constant
[14] = biological target: Nitric oxide synthase, inducible (Homo sapiens, UniProt P35228); assay: Binding affinity to iNOS (unknown origin) assessed as inhibition constant
[15] = biological target: T1, Nitric oxide synthase 3; assay: Binding affinity to eNOS (unknown origin) assessed as inhibition constant
[16] = biological target: T4, Nitric oxide synthase 1; assay: Binding affinity to GST-tagged nNOS (unknown origin) expressed in Escherichia coli BL21 (DE3) assessed as change in enthalpy
[17] = Permeability of the compound across blood brain barrier at pH 7.4 at 12.5 uM incubated for 4 hrs by PAMPA assay; format: ADME; conditions: read-out: permeability

Sequence of Nitric oxide synthase 1 (Rattus norvegicus, UniProt P29476) (P29476 whole entry): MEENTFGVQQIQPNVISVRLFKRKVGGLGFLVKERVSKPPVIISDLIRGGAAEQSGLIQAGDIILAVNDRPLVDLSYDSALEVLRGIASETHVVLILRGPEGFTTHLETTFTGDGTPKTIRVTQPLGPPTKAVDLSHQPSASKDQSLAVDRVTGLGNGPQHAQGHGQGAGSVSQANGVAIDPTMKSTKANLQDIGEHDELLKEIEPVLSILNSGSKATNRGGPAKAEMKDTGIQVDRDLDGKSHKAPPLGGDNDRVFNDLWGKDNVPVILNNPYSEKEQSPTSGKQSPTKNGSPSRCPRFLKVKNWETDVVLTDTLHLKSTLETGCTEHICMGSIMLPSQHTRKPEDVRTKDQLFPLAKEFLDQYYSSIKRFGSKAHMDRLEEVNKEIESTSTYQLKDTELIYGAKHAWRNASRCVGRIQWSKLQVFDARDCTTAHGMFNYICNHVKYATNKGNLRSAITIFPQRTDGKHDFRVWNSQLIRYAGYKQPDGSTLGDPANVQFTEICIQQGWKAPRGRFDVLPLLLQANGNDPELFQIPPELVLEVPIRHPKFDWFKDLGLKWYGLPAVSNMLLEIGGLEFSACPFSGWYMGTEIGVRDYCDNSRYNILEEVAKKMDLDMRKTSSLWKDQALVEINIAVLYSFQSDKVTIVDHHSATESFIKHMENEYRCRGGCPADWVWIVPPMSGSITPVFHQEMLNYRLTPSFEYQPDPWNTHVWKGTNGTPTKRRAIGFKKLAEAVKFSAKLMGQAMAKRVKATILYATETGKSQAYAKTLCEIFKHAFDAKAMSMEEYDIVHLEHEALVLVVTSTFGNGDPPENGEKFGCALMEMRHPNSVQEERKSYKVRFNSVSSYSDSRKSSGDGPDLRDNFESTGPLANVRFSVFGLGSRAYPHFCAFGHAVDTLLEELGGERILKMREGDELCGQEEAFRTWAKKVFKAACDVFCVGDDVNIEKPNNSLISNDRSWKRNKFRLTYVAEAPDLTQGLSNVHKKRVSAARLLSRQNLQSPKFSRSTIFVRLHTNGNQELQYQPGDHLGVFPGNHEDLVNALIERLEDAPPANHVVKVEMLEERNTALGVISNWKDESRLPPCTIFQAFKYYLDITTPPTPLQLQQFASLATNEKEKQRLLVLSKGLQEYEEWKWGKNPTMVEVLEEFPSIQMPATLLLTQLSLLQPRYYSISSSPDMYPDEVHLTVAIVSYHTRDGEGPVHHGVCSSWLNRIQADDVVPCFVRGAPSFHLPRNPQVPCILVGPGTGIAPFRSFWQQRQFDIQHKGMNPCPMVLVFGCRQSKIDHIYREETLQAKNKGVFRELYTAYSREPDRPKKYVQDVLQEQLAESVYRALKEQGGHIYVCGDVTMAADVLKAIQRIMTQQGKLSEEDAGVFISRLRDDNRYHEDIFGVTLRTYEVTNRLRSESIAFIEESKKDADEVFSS
T4 sequence (P29475 whole entry): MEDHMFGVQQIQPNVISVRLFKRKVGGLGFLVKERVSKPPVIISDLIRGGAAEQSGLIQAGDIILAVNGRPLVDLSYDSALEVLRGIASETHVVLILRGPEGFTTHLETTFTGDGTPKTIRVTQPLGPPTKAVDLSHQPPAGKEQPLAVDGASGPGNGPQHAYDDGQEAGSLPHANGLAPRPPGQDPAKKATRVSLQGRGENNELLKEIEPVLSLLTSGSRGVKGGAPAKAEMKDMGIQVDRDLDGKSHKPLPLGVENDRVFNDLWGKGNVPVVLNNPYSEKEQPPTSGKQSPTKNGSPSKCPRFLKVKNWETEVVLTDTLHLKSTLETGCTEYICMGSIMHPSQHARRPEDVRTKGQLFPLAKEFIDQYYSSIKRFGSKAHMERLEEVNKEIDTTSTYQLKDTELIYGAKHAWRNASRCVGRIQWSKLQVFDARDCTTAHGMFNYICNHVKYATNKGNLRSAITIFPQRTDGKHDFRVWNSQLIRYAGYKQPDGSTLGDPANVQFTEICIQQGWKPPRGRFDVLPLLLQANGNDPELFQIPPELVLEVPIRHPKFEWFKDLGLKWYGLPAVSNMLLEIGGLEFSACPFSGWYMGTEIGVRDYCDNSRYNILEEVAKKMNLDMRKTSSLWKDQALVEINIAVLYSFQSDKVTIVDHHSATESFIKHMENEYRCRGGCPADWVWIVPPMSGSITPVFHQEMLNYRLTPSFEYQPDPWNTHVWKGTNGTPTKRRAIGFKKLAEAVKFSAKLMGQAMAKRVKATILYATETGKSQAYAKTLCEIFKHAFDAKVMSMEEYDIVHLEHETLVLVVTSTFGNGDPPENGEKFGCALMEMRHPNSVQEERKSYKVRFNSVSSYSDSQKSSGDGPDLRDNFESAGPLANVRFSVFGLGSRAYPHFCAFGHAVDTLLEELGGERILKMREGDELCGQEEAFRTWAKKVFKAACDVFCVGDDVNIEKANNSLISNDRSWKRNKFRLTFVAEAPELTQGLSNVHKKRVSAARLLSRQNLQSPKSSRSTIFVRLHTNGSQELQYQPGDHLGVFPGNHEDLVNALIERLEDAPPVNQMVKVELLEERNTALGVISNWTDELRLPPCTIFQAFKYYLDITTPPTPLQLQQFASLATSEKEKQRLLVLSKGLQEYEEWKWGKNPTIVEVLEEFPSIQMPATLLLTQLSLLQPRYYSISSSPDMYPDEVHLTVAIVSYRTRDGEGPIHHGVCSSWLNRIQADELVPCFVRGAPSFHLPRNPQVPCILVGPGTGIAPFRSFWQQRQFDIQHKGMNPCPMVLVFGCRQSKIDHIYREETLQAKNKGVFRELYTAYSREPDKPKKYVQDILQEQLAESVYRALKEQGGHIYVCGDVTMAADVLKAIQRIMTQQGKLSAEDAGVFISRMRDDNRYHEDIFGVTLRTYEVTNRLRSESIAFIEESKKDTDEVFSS
Sequence of Nitric oxide synthase, inducible (Homo sapiens, UniProt P35228) (P35228 whole entry): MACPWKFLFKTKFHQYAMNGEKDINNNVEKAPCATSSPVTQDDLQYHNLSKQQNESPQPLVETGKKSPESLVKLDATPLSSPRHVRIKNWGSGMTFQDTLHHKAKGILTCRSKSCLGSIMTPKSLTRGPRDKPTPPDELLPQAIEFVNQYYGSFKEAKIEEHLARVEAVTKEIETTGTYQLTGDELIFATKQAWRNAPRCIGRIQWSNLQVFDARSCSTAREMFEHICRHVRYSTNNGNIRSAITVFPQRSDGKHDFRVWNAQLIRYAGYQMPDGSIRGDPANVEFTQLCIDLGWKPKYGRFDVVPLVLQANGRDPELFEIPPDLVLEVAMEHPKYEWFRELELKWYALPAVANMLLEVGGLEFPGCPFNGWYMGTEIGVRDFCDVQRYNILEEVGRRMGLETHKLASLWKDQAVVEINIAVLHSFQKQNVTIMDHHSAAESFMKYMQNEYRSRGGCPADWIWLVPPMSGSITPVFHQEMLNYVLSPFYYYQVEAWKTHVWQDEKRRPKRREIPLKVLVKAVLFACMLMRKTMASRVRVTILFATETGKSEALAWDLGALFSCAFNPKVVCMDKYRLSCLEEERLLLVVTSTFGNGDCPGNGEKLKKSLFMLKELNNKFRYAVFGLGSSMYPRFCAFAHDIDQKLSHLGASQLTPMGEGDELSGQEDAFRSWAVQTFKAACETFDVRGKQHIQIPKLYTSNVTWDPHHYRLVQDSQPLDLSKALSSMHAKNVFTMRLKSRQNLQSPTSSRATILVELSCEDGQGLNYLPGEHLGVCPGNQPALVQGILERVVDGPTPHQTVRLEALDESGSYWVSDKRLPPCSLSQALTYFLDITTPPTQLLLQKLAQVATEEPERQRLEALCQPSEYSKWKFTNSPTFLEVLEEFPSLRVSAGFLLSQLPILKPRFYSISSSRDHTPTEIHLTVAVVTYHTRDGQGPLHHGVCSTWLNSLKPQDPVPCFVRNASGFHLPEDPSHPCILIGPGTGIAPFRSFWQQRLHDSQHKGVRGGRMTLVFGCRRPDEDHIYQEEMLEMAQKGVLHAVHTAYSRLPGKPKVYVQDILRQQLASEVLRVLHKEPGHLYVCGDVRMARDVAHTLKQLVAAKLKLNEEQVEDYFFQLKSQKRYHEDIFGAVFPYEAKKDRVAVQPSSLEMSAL

Structure (SMILES): O=[N+]([O-])c1cccc2cn[nH]c12 [7-NITROINDAZOLE]
- IC50 [1]: 0.71 µM

Structure (SMILES): Oc1c(Cl)cc(Cl)cc1CNc1ccc2nn[nH]c2c1
- IC50 [2]: 2.7 µM

Structure (SMILES): CCCCC(OC(C)=O)c1ccccc1C(=O)O[C@H]1CO[C@H]2[C@@H]1OC[C@H]2OC(=O)NCCO[N+](=O)[O-] (stereo partly specified)
- IC50 [3]: 0.44 µM
- solubility [4]: 2.13 µM (≈ 1.09 µg/mL)

Structure (SMILES): CN1CCc2ccc(NC(=N)c3cccs3)cc2C1
- IC50 [5]: 0.08 µM
- IC50 [6]: 24 µM
- IC50 [7]: 5 µM

Structure (SMILES): FC(F)(F)c1ccccc1-n1ccnc1
- IC50 [8]: 28.2 µM
- IC50 [9]: 27 µM
- IC50 [10]: 1060 µM

Structure (SMILES): COC(=O)[C@@H](N)CCCNC(=N)N[N+](=O)[O-] [L-NAME]
- IC50 [1]: 70 µM

Structure (SMILES): Cc1nc(C)c(COC(=O)c2cccc(OCCCCO[N+](=O)[O-])c2)nc1C
- IC50 [11]: 0.734 µM
- IC50 [12]: 0.556 µM

Structure (SMILES): N=C(N)NN [PIMAGEDINE]
- Ki [13]: 830 µM
- Ki [14]: 16 µM
- Ki [15]: > 8000 µM

Structure (SMILES): N=C(Nc1ccc2c(c1)CNCC2)c1cccs1
- IC50 [5]: 0.05 µM
- IC50 [6]: 10 µM
- IC50 [7]: 5.5 µM

Structure (SMILES): COC(=O)C[C@H](NC(=O)[C@@H](C)NCCC1CCCCC1)C(=O)N[C@H](C)C(=O)N[C@@H](C(=O)O)C(C)C
- deltaH [16]: -1.67 kcal/mol
- Papp at 4 h, 12.5 µM [17]: 6.07 ×10⁻⁶ cm/s
